Measured values as given in patent US12653190B2, “Heteroaryl-triazole compounds as pesticides” (Bayer Aktiengesellschaft, priority 2020, dated 2026).

How the values were obtained:
[1] = test system: fall armyworm larvae (Spodoptera frugiperda); test: Spodoptera frugiperda spray test; type: in vivo; settings: in Zea mays, 168 h
Method: Spodoptera frugiperda—Spray Test
• Solvent: 78.0 parts by weight acetone • 1.5 parts by weight dimethylformamide • Emulsifier: alkylarylpolyglycol ether
(§1) To produce a suitable preparation of active compound, 1 part by weight of active compound is mixed with the stated amount of solvents and is diluted with water, containing an emulsifier concentration of 1000 ppm, to the desired concentration. Further test concentrations are prepared by dilution with emulsifier containing water.
Maize (Zea mays) leaf sections are sprayed with a preparation of the active ingredient of the desired concentration. Once dry, the leaf sections are infested with fall armyworm larvae (Spodoptera frugiperda). After 7 days mortality in % is determined. 100% means all caterpillars have been killed and 0% means none of the caterpillars have been killed.

[2] = test system: larvae of the banded cucumber beetle (Diabrotica balteata); test: Diabrotica balteata spray test; type: in vivo; settings: 168 h, 100 g/ha (=32 μg/well), after 7 days, wheat seeds, read-out: efficacy (seedling growth)
Method: Diabrotica balteata—Spray Test
• Solvent: 78.0 parts by weight of acetone • 1.5 parts by weight of dimethylformamide • Emulsifier: alkylarylpolyglycol ether
as §1, with “solvent,” for “solvents”, “and the concentrate” for “and”
Soaked wheat seeds (Triticum aestivum) are placed in a multiple well plate filled with agar and some water and are incubated for 1 day to germinate (5 seeds per well). The germinated wheat seeds are sprayed with a test solution containing the desired concentration of the active ingredient. Afterwards each unit is infected with 10-20 larvae of the banded cucumber beetle (Diabrotica balteata).
After 7 days efficacy in % is determined. 100% means all the seedlings have grown up like in the untreated, uninfected control; 0% means none of the seedlings have grown.

Compound: C[C@H](NC(=O)c1cc(Br)cc(OC(C)(C)C#N)c1)c1ncnn1-c1cc(C#N)ncn1 [Example I-85]
- mortality at 100 g/ha [1]: 100%

Compound: C[C@H](NC(=O)c1cc(Cl)nc(C(C)(C)C#N)c1)c1nc(C2CC2)nn1-c1ncc(C#N)s1 [Example I-69]
- mortality at 100 g/ha [1]: 100%
- pest or weed control at 32 µg/disc, 100 g/ha [2]: 100%

Compound: Cc1nc([C@H](C)NC(=O)c2cc(Br)cc(C(F)(F)c3ccc(F)cc3)c2)n(-c2ncc(C#N)s2)n1 [Example I-79]
- mortality at 100 g/ha [1]: 100%
- pest or weed control at 32 µg/disc, 100 g/ha [2]: 100%

Compound: Cc1nc([C@H](C)NC(=O)c2cc(OC3CC3)cc(OC(F)(F)F)c2)n(-c2ncc(C#N)s2)n1 [Example I-88]
- mortality at 100 g/ha [1]: 100%
- pest or weed control at 32 µg/disc, 100 g/ha [2]: 100%

Compound: C[C@H](NC(=O)c1cc(Br)cc(C(F)(F)c2ccc(F)cc2)c1)c1ncnn1-c1ncc(C#N)s1 [Example I-78]
- mortality at 100 g/ha [1]: 100%
- pest or weed control at 32 µg/disc, 100 g/ha [2]: 100%

Compound: C[C@H](NC(=O)c1cc(CC#N)cc(OC(F)(F)F)c1)c1ncnn1-c1cnc(C#N)cn1 [Example I-57]
- mortality at 100 g/ha [1]: 100%

Compound: C[C@H](NC(=O)c1cc(Br)cc(C(F)(F)c2ccc(F)cc2)c1)c1ncnn1-c1cnc(C#N)cn1 [Example I-77]
- mortality at 100 g/ha [1]: 100%
- pest or weed control at 32 µg/disc, 100 g/ha [2]: 100%

Compound: C[C@H](NC(=O)c1cc(Br)cc(OCC2CC2(Cl)Cl)c1)c1ncnn1-c1ncc(C#N)s1 (stereo partly shown) [Example I-62]
- pest or weed control at 32 µg/disc, 100 g/ha [2]: 100%

Compound: C[C@H](NC(=O)c1cc(Br)cc(C(F)(F)c2ccc(F)cc2)c1)c1ncnn1-c1cc(C#N)ncn1 [Example I-80]
- mortality at 100 g/ha [1]: 100%
- pest or weed control at 32 µg/disc, 100 g/ha [2]: 100%

Compound: C[C@H](NC(=O)c1cc(Br)cc(OC(C)(C)C#N)c1)c1ncnn1-c1cnc(C#N)cn1 [Example I-84]
- mortality at 100 g/ha [1]: 100%

Compound: Cc1nc([C@H](C)NC(=O)c2cc(Cl)cc(C(=O)C3CC3)c2)n(-c2ncc(C#N)s2)n1 [Example I-82]
- mortality at 100 g/ha [1]: 100%
- pest or weed control at 32 µg/disc, 100 g/ha [2]: 100%

Compound: C[C@H](NC(=O)c1cc(OC(F)(F)F)cc(C(C)(C)C#N)c1)c1nc(C2CC2)nn1-c1cc(C#N)ncn1 [Example I-76]
- mortality at 100 g/ha [1]: 100%
- pest or weed control at 32 µg/disc, 100 g/ha [2]: 100%

Compound: C[C@H](NC(=O)c1cc(Br)cc(OCC2CC2(F)F)c1)c1ncnn1-c1ncc(C#N)s1 (stereo partly shown) [Example I-63]
- pest or weed control at 32 µg/disc, 100 g/ha [2]: 100%

Compound: C[C@H](NC(=O)c1cc(OC2CC2)cc(OC(F)(F)F)c1)c1ncnn1-c1cnc(C#N)cn1 [Example I-86]
- mortality at 100 g/ha [1]: 100%
- pest or weed control at 32 µg/disc, 100 g/ha [2]: 100%

Compound: C[C@H](NC(=O)c1cc(OC(F)(F)F)cc(C(C)(C)C#N)c1)c1nc(C2CC2)nn1-c1ncc(C#N)s1 [Example I-67]
- mortality at 100 g/ha [1]: 100%
- pest or weed control at 32 µg/disc, 100 g/ha [2]: 100%

Compound: C[C@H](NC(=O)c1cc(C(C)(C)C#N)cc(S(C)(=O)=O)c1)c1nc(C2CC2)nn1-c1ncc(C#N)s1 [Example I-93]
- mortality at 100 g/ha [1]: 100%
- pest or weed control at 32 µg/disc, 100 g/ha [2]: 80%

Compound: C[C@H](NC(=O)c1cc(OC2CC2)cc(OC(F)(F)F)c1)c1ncnn1-c1cc(C#N)ncn1 [Example I-87]
- mortality at 100 g/ha [1]: 100%
- pest or weed control at 32 µg/disc, 100 g/ha [2]: 80%

Compound: C[C@H](NC(=O)c1cc(Br)cc(OC2CC2)c1)c1ncnn1-c1ncc(C#N)s1 [Example I-49]
- mortality at 100 g/ha [1]: 100%
- pest or weed control at 32 µg/disc, 100 g/ha [2]: 100%

Compound: C[C@H](NC(=O)c1cc(Cl)cc(CC#N)c1)c1ncnn1-c1ncc(C#N)s1 [Example I-50]
- pest or weed control at 32 µg/disc, 100 g/ha [2]: 100%

Compound: C[C@H](NC(=O)c1cc(Cl)cc(C(=O)C2CC2)c1)c1ncnn1-c1cc(C#N)ncn1 [Example I-81]
- mortality at 100 g/ha [1]: 100%
- pest or weed control at 32 µg/disc, 100 g/ha [2]: 100%

Compound: C[C@H](NC(=O)c1cc(OC(C)(C)C#N)cc(C2CC2)c1)c1ncnn1-c1cc(C#N)ncn1 [Example I-92]
- mortality at 100 g/ha [1]: 100%

Compound: Cc1nc([C@H](C)NC(=O)c2cc(OC(C)(C)C#N)cc(C3CC3)c2)n(-c2ncc(C#N)s2)n1 [Example I-90]
- pest or weed control at 32 µg/disc, 100 g/ha [2]: 100%

Compound: C[C@H](NC(=O)c1cc(OC(C)(C)C#N)cc(C2CC2)c1)c1ncnn1-c1ncc(C#N)s1 [Example I-89]
- pest or weed control at 32 µg/disc, 100 g/ha [2]: 100%
